The text below walks through data of patent publication US20260014180A1, “BIOACTIVES AND THEIR USES” (AREPA IP LIMITED, priority 2022, published 2026).

The conditions of data set [1]: in vivo; cited from earlier work.
The target of data set [2] is T1, MAO-B in platelets (Homo sapiens, UniProt P27338).
T1 construct: host or cells: platelets
T1 sequence (P27338 1-520): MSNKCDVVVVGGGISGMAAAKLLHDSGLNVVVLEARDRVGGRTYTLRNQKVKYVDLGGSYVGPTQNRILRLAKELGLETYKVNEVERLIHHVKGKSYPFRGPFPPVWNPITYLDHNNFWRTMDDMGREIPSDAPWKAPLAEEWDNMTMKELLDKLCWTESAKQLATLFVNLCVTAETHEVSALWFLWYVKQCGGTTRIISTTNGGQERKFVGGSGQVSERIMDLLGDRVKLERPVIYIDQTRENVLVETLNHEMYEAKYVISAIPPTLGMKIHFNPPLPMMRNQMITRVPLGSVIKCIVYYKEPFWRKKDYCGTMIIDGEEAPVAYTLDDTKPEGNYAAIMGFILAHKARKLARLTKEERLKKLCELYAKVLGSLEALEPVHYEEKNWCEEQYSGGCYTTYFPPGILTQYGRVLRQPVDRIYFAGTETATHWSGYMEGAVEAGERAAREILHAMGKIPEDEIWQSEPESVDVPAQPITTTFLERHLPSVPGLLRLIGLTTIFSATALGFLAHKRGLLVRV
As to conditions: 100 mg dose, cited from earlier work.

In data set [3] the test system is MAO. As to conditions: cited from earlier work.
For data set [4] the following is noted: human, in vivo. The procedure:
Subjective feeling questionnaires and venous blood samples were collected at various timepoints over 8 h. […] Participants and trial coordinators were masked as to which intervention drink participants consumed. Before each trial day, participants excluded foods and supplements high in polyphenol compounds from their diet, for 24 h. They fasted for at least 10 h before consuming an Almond with Vanilla One Square Meal Bar® (Cookie Time Ltd) for breakfast, 2 h before the start of the trial. Participants arrived at the PFR Clinical Facility, where they were made comfortable. After 5 min at rest, they completed visual analogue scale (VAS) subjective feelings questionnaires and then donated a venous blood sample. After which, they were served their intervention beverage and were instructed to consume it as quickly as possible. […]
The plasma samples (350 μL) were spiked with malvidin 3-O-galactoside and further acidified with phosphoric acid prior to clean up on a SOLAμ™ Solid Phase Extraction plate. […] Quantifications of individual and total anthocyanins were performed using the internal standard ratio method using MultiQuant software, and all results are reported as cyanidin 3-O-glucoside equivalents. Quantification of sarmentosin was performed using an external reference standard supplied by Stephen Bloor (Callaghan Institute).

Data set [5] deals with T2, MAO-B (Sus scrofa, UniProt Q6PLK3).
T2 sequence (Q6PLK3 2-520): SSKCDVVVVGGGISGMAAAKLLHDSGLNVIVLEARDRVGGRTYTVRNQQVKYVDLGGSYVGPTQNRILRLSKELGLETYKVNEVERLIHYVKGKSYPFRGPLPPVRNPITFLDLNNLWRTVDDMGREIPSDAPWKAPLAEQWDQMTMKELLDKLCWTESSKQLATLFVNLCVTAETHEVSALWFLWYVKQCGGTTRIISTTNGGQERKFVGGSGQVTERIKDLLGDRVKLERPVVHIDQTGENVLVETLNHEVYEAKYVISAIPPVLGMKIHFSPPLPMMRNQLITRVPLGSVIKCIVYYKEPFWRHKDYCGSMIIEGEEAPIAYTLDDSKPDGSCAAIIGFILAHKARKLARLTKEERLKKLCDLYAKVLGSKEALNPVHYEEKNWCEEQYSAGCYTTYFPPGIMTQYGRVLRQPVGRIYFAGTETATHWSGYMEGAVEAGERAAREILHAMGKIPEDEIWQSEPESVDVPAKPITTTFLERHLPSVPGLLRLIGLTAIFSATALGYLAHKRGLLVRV
Briefly: S9 liver fraction kynuramine/4HQ LCMS assay, dilution series (Examples 5 and 6). Type of data set: biochemical. The following applies: read-out: 50% inhibition concentration (equivalent); porcine S9 fraction, kynuramine, 1 hr 37 C.
Description: We used a porcine S9 liver microsome fraction as the source of the MAO-A and MAO-B enzymes.
The S9 porcine fraction was mixed with a specific MAO substrate (kynuramine) and mixed with the test sample and buffer. After 1 hr at 37° C. the reaction was halted by cooling and addition of 2N NaOH and acetonitrile. The centrifuged sample was then analysed using LCMS and the level of 4-quinolol (4HQ) product measured.
The S9 liver microsome fraction containing the crude enzyme mix was from a frozen bulk sample derived from porcine liver.
Samples were prepared in a 6-well plate (deep well format with 1.1 ml strip tubes). The assay was performed by diluting the crude S9 fraction with buffer (PBS, PH 7.4, diluted 1 in 5, 150 μl) and adding the test sample dissolved in buffer (75 ul). An aliquot of kynuramine was added (10 μl of 1 mg/ml) and the plate was placed in a 37 C water bath for 1 hr. The plate was cooled in ice water before addition of 20 μl 2N NaOH followed by 250 μl acetonitrile. The individual strip tubes were centrifuged, and samples taken from each for LCMS analysis.
The LCMS analysis was performed using a Cyano HPLC column eluted with 0.1% formic in water and acetonitrile. The LC run was isocratic mode (40% Acetonitrile) and the relative levels of 4 hydroxy quinoline (4HQ) and kynuramine determined from peak areas. […] Kynuramine is converted to 4HQ by the MAO-B enzyme. […]

Data set [6] addresses T3, MAO-A (Homo sapiens, UniProt P21397).
T3 construct: purchased Sigma-Aldrich MAK295/296
T3 sequence (P21397 1-527): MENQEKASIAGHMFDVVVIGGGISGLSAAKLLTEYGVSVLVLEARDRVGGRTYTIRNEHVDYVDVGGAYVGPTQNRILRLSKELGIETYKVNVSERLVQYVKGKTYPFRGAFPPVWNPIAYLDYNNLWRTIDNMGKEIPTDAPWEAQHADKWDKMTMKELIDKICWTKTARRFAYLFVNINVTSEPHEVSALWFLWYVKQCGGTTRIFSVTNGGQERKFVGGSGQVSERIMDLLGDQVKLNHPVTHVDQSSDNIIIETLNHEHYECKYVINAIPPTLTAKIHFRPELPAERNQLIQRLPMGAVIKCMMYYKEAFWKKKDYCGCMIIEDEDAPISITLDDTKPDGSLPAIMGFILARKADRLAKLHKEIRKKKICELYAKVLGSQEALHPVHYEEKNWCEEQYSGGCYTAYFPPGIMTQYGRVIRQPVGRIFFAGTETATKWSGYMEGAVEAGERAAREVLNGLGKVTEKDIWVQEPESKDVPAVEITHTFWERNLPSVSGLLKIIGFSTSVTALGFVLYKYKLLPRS
The following applies: in vivo; cited from earlier work.

Molecules are shown by their SMILES.

Turning to `O=C(NCCN1CCOCC1)c1ccc(Cl)cc1` [Moclobemide], in data set [1], the elimination half-life is 1 to 3 h and the “time to reach peak (plasma) concentrations” value is listed as “approximately 1 hours”.
For `NCCNC(=O)c1ccc(Cl)cn1` [lazabemide], the “inhibition of MAO-B in platelets” value in data set [2] (30 min post dose) is recorded as above 90%. Also, in data set [2] (post dose), the “time at which maximal inhibition subsides” value is 16 h and the “time of full restoration of enzyme activity” value was 48 h.
With `O=c1c(O)c(-c2ccc(O)c(O)c2)oc2cc(O)cc(O)c12` [quercetin], the “MAO inhibitory activity by HPLC method” value in data set [3] is on record as “not active”.
Consider `N#C/C(=C\CO[C@@H]1O[C@H](CO)[C@@H](O)[C@H](O)[C@H]1O)CO` [sarmentosin, 4-(beta-D-glucopyranosyloxy)-2-(hydroxymethyl-2-butenenitrile)], for which, in data set [4], the “time of peak concentrations of sarmentosin in plasma” value was 120 min. The IC50 in data set [5] is around 1450 nM.
In the case of `Cc1cccc(N2CC(CO)OC2=O)c1` (stereo not drawn) [toloxatone], the “duration of MAO-A inhibition” value in data set [6] was “only six hours”.
